Measurements published in patent US12643871B2, “Aryl formamide compound containing chiral sulfur oxide or salt thereof, preparation method, herbicidal composition and use thereof” (Qingdao Kingagroot Chemical Compound Co., Ltd., priority 2019, dated 2026).

What was measured:
Experiment in all cases: Weeding effect in post-emergence stage
Type in all cases: in vivo
Conditions in all cases: 250 g/ha; 2 leaf stage; 15 days after application; fresh weight control rate
Amaranthus retroflexus = test system: Amaranthus retroflexus
From the text: (§1) The activity level criteria for harmful plant damage (i.e., growth control rate) are as follows: • Level 5: growth control rate is above 85%; • Level 4: growth control rate is greater than or equal to 60% and less than 85%; • Level 3: growth control rate is greater than or equal to 40% and less than 60%; • Level 2: growth control rate is greater than or equal to 20% and less than 40%; • Level 1: growth control rate is greater than or equal to 5% and less than 20%; • Level 0: growth control rate is less than 5%.
(§2) The above growth control rates are fresh weight control rates.
(§3) Experiment on weeding effect in post-emergence stage: monocotyledonous and dicotyledonous weed seeds (Descurainia sophia, Capsella bursa-pastoris, Galium aparine, Stellaria media, Lithospermum arvense, Rorippa indica, Alopecurus aequalis, Beckmannia syzigachne, Sclerochloa dura, Phleum paniculatum, Bromus japonicus, Aegilops tauschii, Phalaris arundinacea, Amaranthus retroflexus, Chenopodiaceae, Commelina communis, Sonchus arvensis, convolvulus arvensis, Cirsium setosum, Solanum nigrum, Acalypha australis, Digitaria sanguinalis, Echinochloa crusgalli, Setaria viridis, Setaria glauca, Leptochloa chinensis, Monochoria vaginalis, Sagittaria trifolia, Scirpus juncoides, Cyperus rotundus, Cyperus iria, Cyperus difformis, Fimbristylis, Portulaca oleracea, Xanthium sibiricum, Pharbitis nil) and major crop seeds (wheat, corn, rice, soybean, cotton, oilseed rape, millet, sorghum, potato, sesame, ricinus) were placed in plastic pots filled with soil, then covered with 0.5-2 cm of soil, allowed to grow in a good greenhouse environment. After 2 weeks of sowing, the test plants were treated in the 2 leaf stage. The tested compounds of the present invention were respectively dissolved in acetone, then added with Tween 80 and 1.5 liter/ha of emulsifiable concentrate of methyl oleate as synergist, diluted with a certain amount of water to obtain a solution with a certain concentration, and sprayed with a spray tower onto the plants. After the application, the plants were cultured for 15 days in the greenhouse, and then the experimental results of the weeding were counted. The doses of the used compounds were 500, 250, 125, 60, 30, 15 g/ha, and the averages were obtained by repeating for three times.

Echinochloa crusgali = test system: Echinochloa crusgali
From the text: as §1, §2, §3

Digitaria sanguinalis = test system: Digitaria sanguinalis
From the text: as §1, §2, §3

Row | SMILES | weeding effect in post-emergence stage, activity level (growth control rate), Amaranthus retroflexus (Amaranthus retroflexus) | weeding effect in post-emergence stage, activity level (growth control rate), Echinochloa crusgali (Echinochloa crusgali) | weeding effect in post-emergence stage, activity level (growth control rate), Digitaria sanguinalis (Digitaria sanguinalis)
1 | Cc1nnc(NC(=O)c2ccc(S(C)(=O)=O)c([S@+]([O-])CC(C)F)c2C)o1 (some centres unmarked) [Compound 501] | 5 (Level 5: growth control rate is above 85%) | 5 (Level 5: growth control rate is above 85%) | –
2 | Cc1c(C(=O)Nc2nnnn2C)ccc(S(C)(=O)=O)c1[S@@+](C)[O-] [Compound 511] | 5 (Level 5: growth control rate is above 85%) | 5 (Level 5: growth control rate is above 85%) | –
3 | CCC[S@@+]([O-])c1c(S(C)(=O)=O)ccc(C(=O)Nc2nnnn2C)c1C [Compound 512] | 5 (Level 5: growth control rate is above 85%) | 5 (Level 5: growth control rate is above 85%) | –
4 | Cc1c(C(=O)Nc2nnnn2C)ccc(S(C)(=O)=O)c1[S@+]([O-])C(C)C [Compound 513] | 5 (Level 5: growth control rate is above 85%) | 5 (Level 5: growth control rate is above 85%) | –
5 | Cc1c(C(=O)Nc2nnnn2C)ccc(S(C)(=O)=O)c1[S@+]([O-])CC(C)C [Compound 515] | 5 (Level 5: growth control rate is above 85%) | 5 (Level 5: growth control rate is above 85%) | –
6 | C=CC[S@@+]([O-])c1c(S(C)(=O)=O)ccc(C(=O)Nc2nnnn2C)c1C [Compound 516] | 5 (Level 5: growth control rate is above 85%) | 5 (Level 5: growth control rate is above 85%) | –
7 | C#CC[S@@+]([O-])c1c(S(C)(=O)=O)ccc(C(=O)Nc2nnnn2C)c1C [Compound 517] | 5 (Level 5: growth control rate is above 85%) | 5 (Level 5: growth control rate is above 85%) | –
8 | CSCC[S@@+]([O-])c1c(C(F)(F)F)ccc(C(=O)Nc2nnnn2C)c1SC [Compound 595] | 5 (Level 5: growth control rate is above 85%) | 5 (Level 5: growth control rate is above 85%) | 5 (Level 5: growth control rate is above 85%)
9 | CSc1c(C(=O)Nc2nnnn2C)ccc(C(F)(F)F)c1[S@+]([O-])CCF [Compound 596] | 5 (Level 5: growth control rate is above 85%) | 5 (Level 5: growth control rate is above 85%) | 5 (Level 5: growth control rate is above 85%)
10 | CSC(=O)C[S@@+]([O-])c1c(C(F)(F)F)ccc(C(=O)Nc2nnc(C)o2)c1F [Compound 597] | 5 (Level 5: growth control rate is above 85%) | 5 (Level 5: growth control rate is above 85%) | 5 (Level 5: growth control rate is above 85%)
11 | CSCCC[S@@+]([O-])c1c(C(F)(F)F)ccc(C(=O)Nc2nnc(C)o2)c1F [Compound 598] | 5 (Level 5: growth control rate is above 85%) | 5 (Level 5: growth control rate is above 85%) | 5 (Level 5: growth control rate is above 85%)
12 | CSCCC[S@@+]([O-])c1c(C(F)(F)F)ccc(C(=O)Nc2nnc(C)o2)c1SC [Compound 599] | 5 (Level 5: growth control rate is above 85%) | 5 (Level 5: growth control rate is above 85%) | 5 (Level 5: growth control rate is above 85%)
13 | CCC[S@@+]([O-])c1c(C(F)(F)F)ccc(C(=O)Nc2ncn[nH]2)c1F [Compound 600] | 5 (Level 5: growth control rate is above 85%) | 5 (Level 5: growth control rate is above 85%) | 5 (Level 5: growth control rate is above 85%)
14 | Cc1c(C(=O)Nc2nnnn2C)ccc(S(C)(=O)=O)c1[S@+]([O-])CCCC(F)(F)F [Compound 601] | 5 (Level 5: growth control rate is above 85%) | 5 (Level 5: growth control rate is above 85%) | 5 (Level 5: growth control rate is above 85%)
15 | Cc1nnc(NC(=O)c2ccc(S(C)(=O)=O)c([S@+]([O-])CCC(C)(C)C)c2C)o1 [Compound 602] | 5 (Level 5: growth control rate is above 85%) | 5 (Level 5: growth control rate is above 85%) | 5 (Level 5: growth control rate is above 85%)
16 | Cc1c(C(=O)Nc2nnnn2C)ccc(S(C)(=O)=O)c1[S@+]([O-])CCC(C)(C)C [Compound 603] | 5 (Level 5: growth control rate is above 85%) | 5 (Level 5: growth control rate is above 85%) | 5 (Level 5: growth control rate is above 85%)
17 | Cc1nnc(NC(=O)c2ccc(S(C)(=O)=O)c([S@+]([O-])CC(=O)N(C)C)c2C)o1 [Compound 604] | 5 (Level 5: growth control rate is above 85%) | 5 (Level 5: growth control rate is above 85%) | 5 (Level 5: growth control rate is above 85%)
18 | Cc1c(C(=O)Nc2nnnn2C)ccc(S(C)(=O)=O)c1[S+]([O-])COC(=O)C(C)(C)C (centres unmarked) [Compound 605] | 5 (Level 5: growth control rate is above 85%) | 5 (Level 5: growth control rate is above 85%) | 5 (Level 5: growth control rate is above 85%)
